Data: ChEMBL document CHEMBL1139253, “Effect of methyl substitution in a ligand on the selectivity and binding affinity for a nucleobase: a case study with isoxanthopterin and its derivatives” (Bioorg Med Chem, 2009)

Key:
[1] = Binding affinity to target base T of 5'-TCC AGX GCA AC-3'/3'_AGG TCT CGT TG-5' 11 mer duplex DNA containing abasic site assessed as melting temperature at 150 uM by spectrophotometric analysis relative to control
[2] = Binding affinity to target base T of 5'-TCC AGX GCA AC-3'/3'_AGG TCT CGT TG-5' 11 mer duplex DNA containing abasic site assessed as melting temperature at 150 uM by spectrophotometric analysis
[3] = Binding affinity to target base G of 5'-TCC AGX GCA AC-3'/3'_AGG TCG CGT TG-5' 11 mer duplex DNA containing abasic site assessed as melting temperature at 150 uM by spectrophotometric analysis
[4] = Binding affinity to target base C of 5'-TCC AGX GCA AC-3'/3'_AGG TCC CGT TG-5' 11 mer duplex DNA containing abasic site assessed as melting temperature at 150 uM by spectrophotometric analysis relative to control
[5] = Binding affinity to target base A of 5'-TCC AGX GCA AC-3'/3'_AGG TCA CGT TG-5' 11 mer duplex DNA containing abasic site assessed as melting temperature at 150 uM by spectrophotometric analysis
[6] = Binding affinity to target base G of 5'-TCC AGX GCA AC-3'/3'_AGG TCG CGT TG-5' 11 mer duplex DNA containing abasic site assessed as melting temperature at 150 uM by spectrophotometric analysis relative to control
[7] = Binding affinity to target base T of 5'-TCC AGX GCA AC-3'/3'_AGG TCT CGT TG-5' 11 mer duplex DNA containing abasic site at 10 uM by fluorescence quenching measurement
[8] = Binding affinity to target base A of 5'-TCC AGX GCA AC-3'/3'_AGG TCA CGT TG-5' 11 mer duplex DNA containing abasic site assessed as melting temperature at 150 uM by spectrophotometric analysis relative to control
[9] = Binding affinity to target base C of 5'-TCC AGX GCA AC-3'/3'_AGG TCC CGT TG-5' 11 mer duplex DNA containing abasic site assessed as melting temperature at 150 uM by spectrophotometric analysis
[10] = Binding affinity to target base C of 5'-TCC AGX GCA AC-3'/3'_AGG TCC CGT TG-5' 11 mer duplex DNA containing abasic site at 10 uM by fluorescence quenching measurement

Compound | ΔTm [1] [°C] | Tm [2] [°C] | Tm [3] [°C] | ΔTm [4] [°C] | Tm [5] [°C] | ΔTm [6] [°C] | Activity [7] [%] | ΔTm [8] [°C] | Tm [9] [°C] | Activity [10] [%]
Cn1c(N)nc2[nH]c(=O)cnc2c1=O | 6 | 33.9 | 34.9 | 0.4 | 35.6 | 0.9 | 72.9 | 1.8 | 29.6 | 
Cn1c(=O)cnc2c(=O)[nH]c(N)nc21 | 1.8 | 29.7 | 34.9 | 5.9 | 34 | 0.9 |  | 0.2 | 35.1 | 72
Nc1nc2[nH]c(=O)cnc2c(=O)[nH]1 | 4.8 | 32.7 | 33.6 | 4.5 | 36 | -0.4 | 51.7 | 2.2 | 33.7 | 43.5
